Measured values taken from patent publication US20260216151A1, “GPR65 MODULATORS” (Pathios Therapeutics Limited, priority 2023, published 2026).

What follows are compounds tested against T1, human recombinant GPR65 (Homo sapiens, UniProt Q8IYL9) (assay: Human GPR65 cAMP HTRF antagonist assay). Conditions: 1321N1-hrGPR65 cells, assay pH 7.2, cAMP HTRF; read-out: hGPR65 IC50.
T1 construct: host or cells: 1321N1 human astrocytoma cells (1321N1-hrGPR65)
T1 sequence (Q8IYL9 whole entry): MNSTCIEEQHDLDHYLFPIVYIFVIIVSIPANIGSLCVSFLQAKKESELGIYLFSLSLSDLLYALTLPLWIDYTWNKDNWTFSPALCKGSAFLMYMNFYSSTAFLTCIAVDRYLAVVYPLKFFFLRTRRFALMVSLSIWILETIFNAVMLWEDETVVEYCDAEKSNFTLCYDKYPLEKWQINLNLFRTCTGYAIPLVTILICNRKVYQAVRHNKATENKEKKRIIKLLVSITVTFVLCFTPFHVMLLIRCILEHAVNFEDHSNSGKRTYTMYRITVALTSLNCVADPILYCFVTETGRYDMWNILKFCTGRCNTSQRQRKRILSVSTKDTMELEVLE
Type: cell-based
Protocol: Human GPR65 Cyclic Adenosine Monophosphate (cAMP) Homogeneous Time Resolved Fluorescence (HTRF) Antagonist Assay Procedure
IC50 data was obtained by the following procedure:
1321N1 human astrocytoma cells stably expressing human recombinant GPR65 (1321N1-hrGPR65 cells, EuroscreenFast) were cultured according to the vendor's instructions.
Compounds were tested for their ability to antagonise GPR65, through measuring the concentration of cytoplasmic cAMP following treatment of the cells at a pH of 7.2 to activate GPR65 signalling and addition of the compound to be tested. The extent to which the expected rise in cAMP concentration upon GPR65 activation was suppressed by the added compound is indicative of its potency. The assay was carried out according to EuroscreenFast assay Methodology as follows.
On the day of the assay, test compounds were added to 384-well, low volume, white microtiter plates by acoustic dispensing. KRH buffer (5 mM KCl, 1.25 mM MgSO4, 124 mM NaCl, 25 mM HEPES, 13.3 mM Glucose, 1.25 mM KH2PO4 and 1.45 mM CaCl2) was adjusted to pH 6.5, pH 7.6 and pH 8.4 by adding NaOH. 1321N1-hGPR65 cells were rapidly thawed and diluted in KRH, pH 7.6 prior to centrifugation at 300×g for 5 min and resuspension in assay buffer (KRH, pH 7.6, supplemented with 1 mM 3-isobutyl-1-methylxanthine (IBMX) and 200 μM ethylenediaminetetraacetic acid (EDTA)). Cells were added to assay plates at a density of 2,000 cells per well in a volume of 5 μl. Assay plates were briefly centrifuged at 100×g and then incubated at room temperature for 30 min. Cells were stimulated by the addition of 5 μL KRH, pH 6.5, to achieve an assay pH of 7.2, while control wells received 5 μl KRH, pH 8.4 to achieve an assay pH of 7.9. Assay plates were briefly centrifuged at 100×g and then incubated at room temperature for 30 min.
Accumulation of cAMP was detected by cAMP HTRF kit (Cisbio). d2-labeled cAMP and cryptate-labeled anti-cAMP antibody in Lysis and Detection Buffer (Cisbio) were added to assay plates, and the plates were incubated at room temperature for 1 h. HTRF measurements were performed using a Pherastar FSX instrument. Acceptor and donor emission signals were measured at 665 nm and 620 nm, respectively, and HTRF ratios were calculated as signal665 nm/signal620 nm×10^4. Data were normalised to high and low control values and fitted with 4-parameter logistic regression to determine hGPR65 IC50 values for the test compounds, which are shown in Table 1.
Work on Cc1cc(-c2ccc(OCC(F)(F)F)nc2)c(Cl)cc1NC(=O)N1CCc2cc(=O)[nH]cc2C1 [Compound 15, N-(5-Chloro-2-methyl-4-(6-(2,2,2-trifluoroethoxy)pyridin-3-yl)phenyl)-6-oxo-3,4,6,7-tetrahydro-2,7-naphthyridine-2(1H)-carboxamide] yielded an IC50 of 0.5 to 5 µM. For O=C(Nc1cc(Cl)c(-c2ccc(F)nc2)cc1OCc1ccccc1)N1CCc2cc(=O)[nH]cc2C1 [Compound 16, N-(2-(Benzyloxy)-5-chloro-4-(6-fluoropyridin-3-yl)phenyl)-6-oxo-3,4,6,7-tetrahydro-2,7-naphthyridine-2(1H)-carboxamide], the IC50 was > 5 µM. With O=C(Nc1cc(Cl)c(-c2ccc(OCC(F)(F)F)nc2)cc1F)N1CCc2cc(=O)[nH]cc2C1 [Compound 6, N-(5-Chloro-2-fluoro-4-(6-(2,2,2-trifluoroethoxy)pyridin-3-yl)phenyl)-6-oxo-3,4,6,7-tetrahydro-2,7-naphthyridine-2(1H)-carboxamide] the IC50 was < 0.5 µM. For COc1cc(-c2ccc(OCC(F)(F)F)nc2)c(Cl)cc1NC(=O)N1CCc2cc(=O)[nH]cc2C1 [Compound 14, N-(5-chloro-2-methoxy-4-(6-(2,2,2-trifluoroethoxy)pyridin-3-yl)phenyl)-6-oxo-3,4,6,7-tetrahydro-2,7-naphthyridine-2(1H)-carboxamide], the IC50 was 0.5 to 5 µM. With O=C(Nc1cc(Cl)c(-c2ccc3nonc3c2)cc1F)N1CCc2cc(=O)[nH]nc2C1 [Compound 13, N-(4-(Benzo[c][1,2,5]oxadiazol-5-yl)-5-chloro-2-fluorophenyl)-3-oxo-2,5,6,8-tetrahydropyrido[3,4-c]pyridazine-7(3H)-carboxamide] the IC50 was < 0.5 µM. With CC(C)COc1ccc(-c2cc(F)c(NC(=O)N3CCc4cc(=O)[nH]cc4C3)cc2Cl)cn1 [Compound 9, N-(5-Chloro-2-fluoro-4-(6-isobutoxypyridin-3-yl)phenyl)-6-oxo-3,4,6,7-tetrahydro-2,7-naphthyridine-2(1H)-carboxamide] the IC50 was < 0.5 µM. O=C(Nc1cc(Cl)c(-c2ccc3nonc3c2)cc1F)N1CCc2cc(=O)[nH]cc2C1 [Compound 1, N-(4-(Benzo[c][1,2,5]oxadiazol-5-yl)-5-chloro-2-fluorophenyl)-6-oxo-3,4,6,7-tetrahydro-2,7-naphthyridine-2(1H)-carboxamide] was tested, and the IC50 was < 0.5 µM. With O=C(Nc1cc(Cl)c(-c2cnc3nonc3c2)cc1F)N1CCc2c(ccnc2F)C1 [Compound 5, N-(4-([1,2,5]Oxadiazolo[3,4-b]pyridin-6-yl)-5-chloro-2-fluorophenyl)-5-fluoro-3,4-dihydro-2,6-naphthyridine-2(1H)-carboxamide] the IC50 was < 0.5 µM. For O=C(Nc1cc(Cl)c(-c2cc(F)c3nonc3c2)cc1F)N1CCc2cc(=O)[nH]cc2C1 [Compound 7, N-(5-Chloro-2-fluoro-4-(7-fluorobenzo[c][1,2,5]oxadiazol-5-yl)phenyl)-6-oxo-3,4,6,7-tetrahydro-2,7-naphthyridine-2(1H)-carboxamide], the IC50 was < 0.5 µM. In the case of O=C(Nc1cc(Cl)c(-c2ccnc(OCC(F)(F)F)c2)cc1F)N1CCc2cc(=O)[nH]cc2C1 [Compound 11, N-(5-Chloro-2-fluoro-4-(2-(2,2,2-trifluoroethoxy)pyridin-4-yl)phenyl)-6-oxo-3,4,6,7-tetrahydro-2,7-naphthyridine-2(1H)-carboxamide], the IC50 is reported as < 0.5 µM. For COc1ccc(-c2cc(F)c(NC(=O)N3CCc4cc(=O)[nH]cc4C3)cc2Cl)cn1 [Compound 2, N-(5-Chloro-2-fluoro-4-(6-methoxypyridin-3-yl)phenyl)-6-oxo-3,4,6,7-tetrahydro-2,7-naphthyridine-2(1H)-carboxamide], the IC50 was < 0.5 µM. In the case of O=C(Nc1cc(Cl)c(-c2cnc(OCC(F)(F)F)c(F)c2)cc1F)N1CCc2cc(=O)[nH]cc2C1 [Compound 10, N-(5-Chloro-2-fluoro-4-(5-fluoro-6-(2,2,2-trifluoroethoxy)pyridin-3-yl)phenyl)-6-oxo-3,4,6,7-tetrahydro-2,7-naphthyridine-2(1H)-carboxamide], the IC50 is reported as < 0.5 µM. With O=C(Nc1cc(Cl)c(-c2cc3nonc3cc2F)cc1F)N1CCc2cc(=O)[nH]cc2C1 [Compound 8, N-(5-Chloro-2-fluoro-4-(6-fluorobenzo[c][1,2,5]oxadiazol-5-yl)phenyl)-6-oxo-3,4,6,7-tetrahydro-2,7-naphthyridine-2(1H)-carboxamide] the IC50 was < 0.5 µM. For O=C(Nc1cc(Cl)c(-c2ccc(OCC(F)(F)F)nc2)cc1F)N1CCc2cc(=O)[nH]nc2C1 [Compound 12, N-(5-Chloro-2-fluoro-4-(6-(2,2,2-trifluoroethoxy)pyridin-3-yl)phenyl)-3-oxo-2,5,6,8-tetrahydropyrido[3,4-c]pyridazine-7(3H)-carboxamide], the IC50 was < 0.5 µM. With O=C(Nc1cc(Cl)c(-c2ccc(F)nc2)cc1F)N1CCc2cc(=O)[nH]cc2C1 [Compound 3, N-(5-chloro-2-fluoro-4-(6-fluoropyridin-3-yl)phenyl)-6-oxo-3,4,6,7-tetrahydro-2,7-naphthyridine-2(1H)-carboxamide] the IC50 was 0.5 to 5 µM. In the case of O=C(Nc1cc(Cl)c(-c2cnc3nonc3c2)cc1F)N1CCc2cc(=O)[nH]cc2C1 [Compound 4, N-(4-([1,2,5]Oxadiazolo[3,4-b]pyridin-6-yl)-5-chloro-2-fluorophenyl)-6-oxo-3,4,6,7-tetrahydro-2,7-naphthyridine-2(1H)-carboxamide], the IC50 is reported as 0.5 to 5 µM.
